From ChEMBL document CHEMBL5678807, “A selective jumonji H3K27 demethylase inhibitor modulates the proinflammatory macrophage response” (Nature, 2012)

Key:
Macrophage [1] = experiment: Antiinflammatory activity in human primary macrophages assessed as effect on LPS-induced IL1F8 gene expression at 30 uM measured after 2 hrs by RT-PCR array (reference value: 1429 a.u.); assay type: functional
Macrophage [2] = experiment: Antiinflammatory activity in human primary macrophages assessed as effect on LPS-induced TNFSF11 gene expression at 30 uM measured after 2 hrs by RT-PCR array (reference value: 32 a.u.); assay type: functional
Macrophage [3] = experiment: Antiinflammatory activity in human primary macrophages assessed as effect on LPS-induced GAPDH gene expression at 30 uM measured after 2 hrs by RT-PCR array (reference value: 1352294 a.u.); assay type: functional
Macrophage [4] = experiment: Antiinflammatory activity in human primary macrophages assessed as effect on LPS-induced NODAL gene expression at 30 uM measured after 2 hrs by RT-PCR array (reference value: 125 a.u.); assay type: functional
Macrophage [5] = experiment: Antiinflammatory activity in human primary macrophages assessed as effect on LPS-induced TGFB3 gene expression at 30 uM measured after 2 hrs by RT-PCR array (reference value: 524 a.u.); assay type: functional
Macrophage [6] = experiment: Antiinflammatory activity in human primary macrophages assessed as effect on LPS-induced IL1A gene expression at 30 uM measured after 2 hrs by RT-PCR array (reference value: 1292761 a.u.); assay type: functional
Macrophage [7] = experiment: Antiinflammatory activity in human primary macrophages assessed as effect on LPS-induced IFNA1 gene expression at 30 uM measured after 2 hrs by RT-PCR array (reference value: 462 a.u.); assay type: functional
Macrophage [8] = experiment: Antiinflammatory activity in human primary macrophages assessed as effect on LPS-induced GDF3 gene expression at 30 uM measured after 2 hrs by RT-PCR array (reference value: 134 a.u.); assay type: functional
Macrophage [9] = experiment: Cytotoxicity against LPS-induced human primary macrophages assessed as effect on cell viability measured after 4 hrs by WST-1 assay; assay type: toxicity, cell-based
Macrophage [10] = experiment: Antiinflammatory activity in human primary macrophages assessed as effect on LPS-induced IL15 gene expression at 30 uM measured after 2 hrs by RT-PCR array (reference value: 62425 a.u.); assay type: functional
Macrophage [11] = experiment: Antiinflammatory activity in human primary macrophages assessed as effect on LPS-induced IL1F9 gene expression at 30 uM measured after 2 hrs by RT-PCR array (reference value: 5170 a.u.); assay type: functional
Macrophage [12] = experiment: Antiinflammatory activity in human primary macrophages assessed as effect on LPS-induced IL20 gene expression at 30 uM measured after 2 hrs by RT-PCR array (reference value: 2040 a.u.); assay type: functional
Macrophage [13] = experiment: Antiinflammatory activity in human primary macrophages assessed as effect on LPS-induced IL1F6 gene expression at 30 uM measured after 2 hrs by RT-PCR array (reference value: 145 a.u.); assay type: functional
Macrophage [14] = experiment: Antiinflammatory activity in human primary macrophages assessed as effect on LPS-induced CD70 gene expression at 30 uM measured after 2 hrs by RT-PCR array (reference value: 2415 a.u.); assay type: functional
Macrophage [15] = experiment: Antiinflammatory activity in human primary macrophages assessed as effect on LPS-induced FIGF gene expression at 30 uM measured after 2 hrs by RT-PCR array (reference value: 60 a.u.); assay type: functional
Macrophage [16] = experiment: Antiinflammatory activity in human primary macrophages assessed as effect on LPS-induced CSF2 gene expression at 30 uM measured after 2 hrs by RT-PCR array (reference value: 248134 a.u.); assay type: functional
Macrophage [17] = experiment: Antiinflammatory activity in human primary macrophages assessed as effect on LPS-induced IL6 gene expression at 30 uM measured after 2 hrs by RT-PCR array (reference value: 3511720 a.u.); assay type: functional
Histone deacetylase 1 = Histone deacetylase 1 (Homo sapiens, UniProt Q13547); experiment: Inhibition of human HDAC1 by FLINT assay
Histone deacetylase 1, sequence (Q13547 whole entry): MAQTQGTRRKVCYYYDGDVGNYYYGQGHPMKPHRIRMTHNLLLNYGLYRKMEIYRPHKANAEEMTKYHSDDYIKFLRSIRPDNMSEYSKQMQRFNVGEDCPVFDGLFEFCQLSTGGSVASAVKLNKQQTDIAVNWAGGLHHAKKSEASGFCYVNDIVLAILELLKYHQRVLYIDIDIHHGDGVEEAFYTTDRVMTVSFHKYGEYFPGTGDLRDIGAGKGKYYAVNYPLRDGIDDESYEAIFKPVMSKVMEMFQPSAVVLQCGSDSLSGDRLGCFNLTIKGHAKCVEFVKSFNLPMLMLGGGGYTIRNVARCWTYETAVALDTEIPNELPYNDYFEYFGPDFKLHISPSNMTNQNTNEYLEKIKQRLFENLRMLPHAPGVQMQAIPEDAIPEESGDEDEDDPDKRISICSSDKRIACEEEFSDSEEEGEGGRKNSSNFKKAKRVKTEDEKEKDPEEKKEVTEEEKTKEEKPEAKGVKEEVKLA

Substance-P receptor = Substance-P receptor (Homo sapiens, UniProt P25103); experiment: Antagonist activity at human NK-1 by intracellular Ca luminescence assay; assay type: functional, cell-based
Substance-P receptor, sequence (P25103 whole entry): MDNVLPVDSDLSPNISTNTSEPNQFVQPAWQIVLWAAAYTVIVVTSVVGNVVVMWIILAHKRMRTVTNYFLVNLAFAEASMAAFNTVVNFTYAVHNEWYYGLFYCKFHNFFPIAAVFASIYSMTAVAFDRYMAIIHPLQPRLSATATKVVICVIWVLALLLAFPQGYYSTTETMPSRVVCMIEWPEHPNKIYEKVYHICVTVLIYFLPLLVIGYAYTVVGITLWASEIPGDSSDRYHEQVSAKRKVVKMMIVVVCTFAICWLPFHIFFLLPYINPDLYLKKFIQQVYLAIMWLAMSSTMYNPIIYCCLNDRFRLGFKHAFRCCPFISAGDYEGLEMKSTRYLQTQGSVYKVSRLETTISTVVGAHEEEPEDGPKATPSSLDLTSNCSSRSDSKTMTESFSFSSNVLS

Prolyl hydroxylase EGLN3 = Prolyl hydroxylase EGLN3 (Homo sapiens, UniProt Q9H6Z9); experiment: Inhibition of human EGLN3 by TR-FRET assay
Prolyl hydroxylase EGLN3, sequence (Q9H6Z9 whole entry): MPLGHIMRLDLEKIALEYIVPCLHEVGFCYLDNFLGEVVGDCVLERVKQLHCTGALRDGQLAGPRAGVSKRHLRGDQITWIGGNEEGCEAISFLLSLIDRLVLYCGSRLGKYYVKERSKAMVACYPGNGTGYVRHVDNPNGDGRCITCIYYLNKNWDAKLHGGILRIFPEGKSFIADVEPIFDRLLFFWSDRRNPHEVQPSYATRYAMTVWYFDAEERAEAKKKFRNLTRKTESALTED

[18] = Antagonist activity at human 5-HT3 by intracellular Ca fluorescence assay; assay type: cell-based
[19] = target: 5-hydroxytryptamine receptor 2A (Homo sapiens, UniProt P28223); experiment: Antagonist activity at human 5-HT2A by intracellular Ca luminescence assay; assay type: functional, cell-based
[20] = target: T1, 5-hydroxytryptamine receptor 2C (Homo sapiens, UniProt P28335); experiment: Agonist activity at human 5-HT2C by intracellular Ca luminescence assay; assay type: functional, cell-based
T1 sequence (P28335 whole entry): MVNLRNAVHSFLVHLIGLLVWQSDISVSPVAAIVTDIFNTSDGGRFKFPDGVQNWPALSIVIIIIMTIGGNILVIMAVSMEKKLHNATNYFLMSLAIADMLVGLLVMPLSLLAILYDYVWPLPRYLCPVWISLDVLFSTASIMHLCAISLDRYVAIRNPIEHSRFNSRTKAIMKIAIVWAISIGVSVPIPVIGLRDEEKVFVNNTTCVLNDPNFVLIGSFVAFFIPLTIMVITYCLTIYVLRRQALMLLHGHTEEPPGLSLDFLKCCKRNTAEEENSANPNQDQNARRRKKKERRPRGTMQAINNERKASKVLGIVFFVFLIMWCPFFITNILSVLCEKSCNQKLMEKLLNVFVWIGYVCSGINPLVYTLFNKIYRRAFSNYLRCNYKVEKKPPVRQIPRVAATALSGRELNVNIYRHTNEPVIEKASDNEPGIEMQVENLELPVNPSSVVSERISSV

[21] = target: Amine oxidase [flavin-containing] A (Homo sapiens, UniProt P21397); experiment: Inhibition of human MAOA by FLINT assay
Amine oxidase [flavin-containing] A, sequence (P21397 whole entry): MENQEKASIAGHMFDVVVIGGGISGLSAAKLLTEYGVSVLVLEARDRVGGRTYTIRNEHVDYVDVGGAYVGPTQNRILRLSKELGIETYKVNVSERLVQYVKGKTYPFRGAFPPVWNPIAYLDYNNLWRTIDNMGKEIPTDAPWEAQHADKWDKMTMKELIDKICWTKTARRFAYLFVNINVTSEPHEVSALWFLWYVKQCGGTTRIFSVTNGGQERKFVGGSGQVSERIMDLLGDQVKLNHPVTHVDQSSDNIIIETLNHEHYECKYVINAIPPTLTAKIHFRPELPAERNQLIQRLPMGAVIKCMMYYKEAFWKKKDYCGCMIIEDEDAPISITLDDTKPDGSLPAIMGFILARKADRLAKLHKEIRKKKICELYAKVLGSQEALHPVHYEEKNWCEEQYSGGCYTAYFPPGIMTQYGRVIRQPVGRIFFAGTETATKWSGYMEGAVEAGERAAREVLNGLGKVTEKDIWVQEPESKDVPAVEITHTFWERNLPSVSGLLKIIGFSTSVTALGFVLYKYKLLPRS

[22] = target: 3',5'-cyclic-AMP phosphodiesterase 4B (Homo sapiens, UniProt Q07343); experiment: Inhibition of human PDE4B by luminescence assay
3',5'-cyclic-AMP phosphodiesterase 4B, sequence (Q07343 whole entry): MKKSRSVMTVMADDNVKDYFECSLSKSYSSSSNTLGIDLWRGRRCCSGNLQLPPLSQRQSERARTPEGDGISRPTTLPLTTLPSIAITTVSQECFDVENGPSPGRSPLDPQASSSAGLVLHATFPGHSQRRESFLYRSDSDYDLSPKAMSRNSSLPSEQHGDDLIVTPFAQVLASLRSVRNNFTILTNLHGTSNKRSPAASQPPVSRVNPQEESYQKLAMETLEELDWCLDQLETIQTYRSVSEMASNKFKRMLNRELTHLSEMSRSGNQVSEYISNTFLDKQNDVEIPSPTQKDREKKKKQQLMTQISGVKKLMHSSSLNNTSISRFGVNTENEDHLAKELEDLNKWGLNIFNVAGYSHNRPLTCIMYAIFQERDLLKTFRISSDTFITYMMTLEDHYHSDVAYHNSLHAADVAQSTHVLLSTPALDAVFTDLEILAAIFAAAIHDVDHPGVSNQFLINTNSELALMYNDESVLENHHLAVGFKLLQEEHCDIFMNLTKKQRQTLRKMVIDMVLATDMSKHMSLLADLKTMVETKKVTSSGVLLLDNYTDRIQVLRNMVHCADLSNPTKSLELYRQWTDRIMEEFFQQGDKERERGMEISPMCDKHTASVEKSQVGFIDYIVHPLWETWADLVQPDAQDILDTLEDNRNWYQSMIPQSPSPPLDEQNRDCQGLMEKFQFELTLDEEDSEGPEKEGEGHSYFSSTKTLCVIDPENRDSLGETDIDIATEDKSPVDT

[23] = target: Lysine-specific histone demethylase 1A (Homo sapiens, UniProt O60341); experiment: Inhibition of human LSD-1 by luminescence assay
Histone deacetylase 8 = Histone deacetylase 8 (Homo sapiens, UniProt Q9BY41); experiment: Inhibition of human HDAC8 by FLINT assay
Histone deacetylase 8, sequence (Q9BY41 whole entry): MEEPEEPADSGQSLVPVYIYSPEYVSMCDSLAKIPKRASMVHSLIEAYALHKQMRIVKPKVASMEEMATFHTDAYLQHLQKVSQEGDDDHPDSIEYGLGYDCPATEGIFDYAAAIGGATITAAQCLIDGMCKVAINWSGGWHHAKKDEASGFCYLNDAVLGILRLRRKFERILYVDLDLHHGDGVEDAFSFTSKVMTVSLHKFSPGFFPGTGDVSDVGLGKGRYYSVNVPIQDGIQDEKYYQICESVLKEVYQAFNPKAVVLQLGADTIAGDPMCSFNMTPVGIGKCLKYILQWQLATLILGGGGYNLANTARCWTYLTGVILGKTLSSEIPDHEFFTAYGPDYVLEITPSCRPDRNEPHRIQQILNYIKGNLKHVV

Histone deacetylase 3 = Histone deacetylase 3 (Homo sapiens, UniProt O15379); experiment: Inhibition of human HDAC3 by FLINT assay
Histone deacetylase 3, sequence (O15379 whole entry): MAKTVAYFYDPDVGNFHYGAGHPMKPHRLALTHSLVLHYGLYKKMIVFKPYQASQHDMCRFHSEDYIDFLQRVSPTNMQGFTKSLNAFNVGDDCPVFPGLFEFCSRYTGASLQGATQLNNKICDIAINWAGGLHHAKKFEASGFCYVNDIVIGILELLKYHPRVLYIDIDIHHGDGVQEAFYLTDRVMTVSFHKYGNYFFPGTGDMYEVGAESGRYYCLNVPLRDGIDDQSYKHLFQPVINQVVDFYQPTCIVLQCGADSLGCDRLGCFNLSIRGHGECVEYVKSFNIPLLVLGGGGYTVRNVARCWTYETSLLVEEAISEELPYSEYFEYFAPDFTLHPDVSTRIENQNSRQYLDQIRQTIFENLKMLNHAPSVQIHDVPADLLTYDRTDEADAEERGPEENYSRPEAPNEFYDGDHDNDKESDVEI

[24] = target: Lysine-specific demethylase 4D (Homo sapiens, UniProt Q6B0I6); experiment: Inhibition of human JmjD2d using H3K27(me3) as substrate preincubated for 10 mins followed by substrate addition and measured after 7 mins in presence of alpha-KG by RapidFire Mass Spectrometry
Cannabinoid receptor 2 = Cannabinoid receptor 2 (Homo sapiens, UniProt P34972); experiment: Agonist activity at human cannabinoid CB2 receptor by Yeast FDGlu assay; assay type: functional
Cannabinoid receptor 2, sequence (P34972 whole entry): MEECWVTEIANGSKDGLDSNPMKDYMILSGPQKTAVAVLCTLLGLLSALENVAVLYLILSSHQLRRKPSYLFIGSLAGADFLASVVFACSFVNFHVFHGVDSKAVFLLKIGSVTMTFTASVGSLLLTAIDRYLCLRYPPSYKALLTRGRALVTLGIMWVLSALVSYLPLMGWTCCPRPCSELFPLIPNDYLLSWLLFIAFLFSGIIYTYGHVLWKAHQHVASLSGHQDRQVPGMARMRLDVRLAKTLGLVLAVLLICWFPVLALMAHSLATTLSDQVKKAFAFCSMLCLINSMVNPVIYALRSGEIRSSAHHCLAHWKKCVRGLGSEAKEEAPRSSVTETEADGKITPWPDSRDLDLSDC

[25] = target: 5-hydroxytryptamine receptor 1B (Homo sapiens, UniProt P28222); experiment: Antagonist activity at human 5-HT1B by SPA; assay type: functional
5-hydroxytryptamine receptor 1B, sequence (P28222 whole entry): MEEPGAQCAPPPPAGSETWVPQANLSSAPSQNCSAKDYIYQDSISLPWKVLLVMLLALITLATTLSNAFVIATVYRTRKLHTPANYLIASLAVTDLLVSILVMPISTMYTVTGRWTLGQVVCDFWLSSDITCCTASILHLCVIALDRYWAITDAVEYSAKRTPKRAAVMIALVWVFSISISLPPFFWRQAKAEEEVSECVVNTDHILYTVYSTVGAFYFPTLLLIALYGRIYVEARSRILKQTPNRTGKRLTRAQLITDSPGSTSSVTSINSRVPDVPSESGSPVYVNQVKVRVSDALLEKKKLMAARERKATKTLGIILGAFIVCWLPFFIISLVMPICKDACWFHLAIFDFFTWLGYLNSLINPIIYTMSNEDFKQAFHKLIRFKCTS

[26] = target: Alpha-1B adrenergic receptor (Homo sapiens, UniProt P35368); experiment: Antagonist activity at human adrenergic alpha 1B by intracellular Ca luminescence assay; assay type: functional, cell-based
Alpha-1B adrenergic receptor, sequence (P35368 whole entry): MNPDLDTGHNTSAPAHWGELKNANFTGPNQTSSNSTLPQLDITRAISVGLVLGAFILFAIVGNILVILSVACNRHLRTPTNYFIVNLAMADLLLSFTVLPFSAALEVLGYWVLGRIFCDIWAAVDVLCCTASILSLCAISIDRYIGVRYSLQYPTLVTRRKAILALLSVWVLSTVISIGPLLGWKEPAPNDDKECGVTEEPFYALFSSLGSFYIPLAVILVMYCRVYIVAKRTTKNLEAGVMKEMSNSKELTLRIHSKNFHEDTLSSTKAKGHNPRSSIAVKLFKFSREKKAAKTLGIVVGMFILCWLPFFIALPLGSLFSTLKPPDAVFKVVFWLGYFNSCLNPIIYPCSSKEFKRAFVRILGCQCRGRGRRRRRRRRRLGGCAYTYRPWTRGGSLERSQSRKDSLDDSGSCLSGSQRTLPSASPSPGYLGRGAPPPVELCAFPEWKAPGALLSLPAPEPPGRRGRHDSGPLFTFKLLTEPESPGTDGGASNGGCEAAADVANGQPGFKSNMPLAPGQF

Mu-type opioid receptor = Mu-type opioid receptor (Homo sapiens, UniProt P35372); experiment: Agonist activity at human OPRM-1 by SPA; assay type: functional
Mu-type opioid receptor, sequence (P35372 whole entry): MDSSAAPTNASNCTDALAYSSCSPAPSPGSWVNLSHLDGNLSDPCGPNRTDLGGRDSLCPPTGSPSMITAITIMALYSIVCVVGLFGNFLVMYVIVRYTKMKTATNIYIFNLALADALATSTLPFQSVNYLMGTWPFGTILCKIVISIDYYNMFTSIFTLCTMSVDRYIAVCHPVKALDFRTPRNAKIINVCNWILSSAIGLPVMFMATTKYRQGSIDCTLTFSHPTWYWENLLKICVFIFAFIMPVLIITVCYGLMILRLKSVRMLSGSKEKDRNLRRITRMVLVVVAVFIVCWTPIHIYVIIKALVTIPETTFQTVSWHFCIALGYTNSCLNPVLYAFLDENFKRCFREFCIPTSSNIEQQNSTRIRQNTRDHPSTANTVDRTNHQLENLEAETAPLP

CCOC(=O)CCNc1cc(N2CCc3ccccc3CC2)nc(-c2ccccn2)n1
Activity (Macrophage [1]): 1157 a.u. | Activity (Macrophage [2]): 255 a.u. | Activity (Macrophage [3]): 1352294 a.u. | Activity (Macrophage [4]): 197 a.u. | Activity (Macrophage [5]): 650 a.u. | Activity (Macrophage [6]): 170309 a.u. | Activity (Macrophage [7]): 285 a.u. | Activity (Macrophage [8]): 59 a.u. | Activity (Macrophage [9]): Non-Toxic | Activity (Macrophage [10]): 4562 a.u. | Activity (Macrophage [11]): 476 a.u. | Activity (Macrophage [12]): 372 a.u. | Activity (Macrophage [13]): 1 a.u. | Activity (Macrophage [14]): 334 a.u. | Activity (Macrophage [15]): 19 a.u. | Activity (Macrophage [16]): 10602 a.u. | Activity (Macrophage [17]): 242914 a.u.

O=C(O)CCNc1cc(N2CCc3ccccc3CC2)nc(-c2ccccn2)n1
XC50 (Histone deacetylase 1): > 300 µM | XC50 (Substance-P receptor): > 40 µM | XC50 (Prolyl hydroxylase EGLN3): > 50 µM | XC50 [18]: > 4.3 µM | XC50 [19]: > 40 µM | XC50 [20]: > 40 µM | XC50 [21]: 50 µM | XC50 [22]: 100 µM | XC50 [23]: > 125 µM | XC50 (Histone deacetylase 8): > 300 µM | Activity (Macrophage [9]): Non-Toxic | XC50 (Histone deacetylase 3): > 300 µM | IC50 [24]: 79 µM | XC50 (Cannabinoid receptor 2): > 32 µM | XC50 [25]: > 32 µM | XC50 [26]: > 40 µM | XC50 (Mu-type opioid receptor): > 100 µM

O=C(O)CCNc1cc(N2CCc3ccccc3CC2)nc(-c2cccnc2)n1
XC50 (Histone deacetylase 1): > 300 µM | XC50 (Substance-P receptor): > 40 µM | XC50 (Prolyl hydroxylase EGLN3): > 50 µM | XC50 [18]: 25 µM | XC50 [19]: > 40 µM | XC50 [20]: > 40 µM | XC50 [21]: > 100 µM | XC50 [22]: 40 µM | XC50 [23]: > 125 µM | XC50 (Histone deacetylase 8): > 300 µM | Activity (Macrophage [9]): Non-Toxic | XC50 (Histone deacetylase 3): > 300 µM | IC50 [24]: > 100 µM | XC50 (Cannabinoid receptor 2): > 32 µM | XC50 [25]: > 32 µM | XC50 [26]: > 40 µM | XC50 (Mu-type opioid receptor): > 100 µM

CCOC(=O)CCNc1cc(N2CCc3ccccc3CC2)nc(-c2cccnc2)n1
Activity (Macrophage [1]): 2282 a.u. | Activity (Macrophage [2]): 27 a.u. | Activity (Macrophage [3]): 1352294 a.u. | Activity (Macrophage [4]): 45 a.u. | Activity (Macrophage [5]): 357 a.u. | Activity (Macrophage [6]): 815450 a.u. | Activity (Macrophage [7]): 835 a.u. | Activity (Macrophage [8]): 151 a.u. | Activity (Macrophage [9]): Non-Toxic | Activity (Macrophage [10]): 40115 a.u. | Activity (Macrophage [11]): 2413 a.u. | Activity (Macrophage [12]): 748 a.u. | Activity (Macrophage [13]): 121 a.u. | Activity (Macrophage [14]): 1003 a.u. | Activity (Macrophage [15]): 87 a.u. | Activity (Macrophage [16]): 67356 a.u. | Activity (Macrophage [17]): 1497395 a.u.
